Among the data in patent US12540143B2, “Methods and compositions for targeted protein degradation” (Ranok Therapeutics (Hangzhou) Co. Ltd., priority 2019, dated 2026) are IC50 values, retold here.

The structures appear in SMILES notation. Counter-ions that a name gives are not always drawn.

One series concerns MV4-11 cells. Briefly: MV4-11 Cytotoxicity Assay. It counts as cell-based, human. Particulars: 72 hr, CCK-8; read-out: MV4-11 cytotoxicity.
For the molecule `CCc1cc(-c2nnc(C(N)=O)n2-c2ccc(CN3CCN(CC4CCN(C(=O)C[C@@H]5N=C(c6ccc(Cl)cc6)c6c(sc(C)c6C)-n6c(C)nnc65)CC4)CC3)cc2)c(O)cc1O` [Compound 120, (S)-4-(4-((4-((1-(2-(4-(4-chlorophenyl)-2,3,9-trimethyl-6H-thieno[3,2-f][1,2,4]triazolo[4,3-a][1,4]diazepin-6-yl)acetyl)piperidin-4-yl)methyl)piperazin-1-yl)methyl)phenyl)-5-(5-ethyl-2,4-dihydroxyphenyl)-4H-1,2,4-triazole-3-carboxamide hydrochloride], the IC50 was < 100 nM.

The series is the same for the next values; noted with them: Homo sapiens, MV4-11; 72 hr, CCK-8; read-out: MV4-11 cytotoxicity.
For `Cc1sc2c(c1C)C(c1ccc(Cl)cc1)=N[C@@H](CC(=O)NCC1CCN(C(=O)C3CCN(Cc4ccc(-n5c(O)nnc5-c5cc(C(C)C)c(O)cc5O)cc4)CC3)CC1)c1nnc(C)n1-2` [Compound 53, (S)-2-(4-(4-chlorophenyl)-2,3,9-trimethyl-6H-thieno[3,2-f][1,2,4]triazolo[4,3-a][1,4]diazepin-6-yl)-N-((1-(1-(4-(3-(2,4-dihydroxy-5-isopropylphenyl)-5-hydroxy-4H-1,2,4-triazol-4-yl)benzyl)piperidine-4-carbonyl)piperidin-4-yl)methyl)acetamide, trifluoroacetic acid], the IC50 was < 100 nM.

For `Cc1cc(-c2nnc(C(=O)NCC(F)(F)F)n2-c2ccc(CN3CCN(CC4CCN(C(=O)C[C@@H]5N=C(c6ccc(Cl)cc6)c6c(sc(C)c6C)-n6c(C)nnc65)CC4)CC3)cc2)c(O)cc1O` [Compound 15, 4-(4-((4-((1-(2-((6S)-4-(4-chlorophenyl)-2,3,9-trimethyl-6H-thieno[3,2-f][1,2,4]triazolo[4,3-a][1,4]diazepin-6-yl)acetyl)piperidin-4-yl)methyl)piperazin-1-yl)methyl)phenyl)-5-(2,4-dihydroxy-5-methylphenyl)-N-(2,2,2-trifluoroethyl)-4H-1,2,4-triazole-3-carboxamide, trifluoroacetic acid], the IC50 was < 100 nM.

As for `Cc1sc2c(c1C)C(c1ccc(Cl)cc1)=NC(CC(=O)N1CCC(Cc3ccc(CN(C)Cc4ccc(-n5c(C(=O)NCC(F)(F)F)nnc5-c5cc(C(C)C)c(O)cc5O)cc4)cc3)CC1)c1nnc(C)n1-2` (stereo in doubt) [Compound 84, (S)-4-(4-(((4-((1-(2-(4-(4-chlorophenyl)-2,3,9-trimethyl-6H-thieno[3,2-f][1,2,4]triazolo[4,3-a][1,4]diazepin-6-yl)acetyl)piperidin-4-yl)methyl)benzyl)(methyl)amino)methyl)phenyl)-5-(2,4-dihydroxy-5-isopropylphenyl)-N-(2,2,2-trifluoroethyl)-4H-1,2,4-triazole-3-carboxamide, trifluoroacetic acid], the IC50 is < 100 nM.

Regarding `Cc1sc2c(c1C)C(c1ccc(Cl)cc1)=NC(CC(=O)N[C@H](C)c1ccc(CN3CCN(Cc4ccc(-n5c(O)nnc5-c5cc(C(C)C)c(O)cc5O)cc4)CC3)cc1)c1nnc(C)n1-2` (stereo in doubt) [Compound 70, 2-((6S)-4-(4-chlorophenyl)-2,3,9-trimethyl-6H-thieno[3,2-f][1,2,4]triazolo[4,3-a][1,4]diazepin-6-yl)-N—((R)-1-(4-((4-(4-(3-(2,4-dihydroxy-5-isopropylphenyl)-5-hydroxy-4H-1,2,4-triazol-4-yl)benzyl)piperazin-1-yl)methyl)phenyl)ethyl)acetamide, trifluoroacetic acid], the IC50 was < 100 nM.

`CCc1cc(-c2nnc(O)n2-c2ccc(CNC(=O)C[C@@H]3N=C(c4ccc(Cl)cc4)c4c(sc(C)c4C)-n4c(C)nnc43)cc2)c(O)cc1O` [Compound 56, 2-((6S)-4-(4-chlorophenyl)-2,3,9-trimethyl-6H-thieno[3,2-f][1,2,4]triazolo[4,3-a][1,4]diazepin-6-yl)-N-(4-(3-(5-ethyl-2,4-dihydroxyphenyl)-5-hydroxy-4H-1,2,4-triazol-4-yl)benzyl)acetamide]: the IC50 lay within 100 to 1000 nM.

Turning to `Cc1sc2c(c1C)C(c1ccc(Cl)cc1)=N[C@@H](CC(=O)NCC(=O)NCc1ccc(-n3c(O)nnc3-c3cc(C(C)C)c(O)cc3O)cc1)c1nnc(C)n1-2` [Compound 57, 2-((6S)-4-(4-chlorophenyl)-2,3,9-trimethyl-6H-thieno[3,2-f][1,2,4]triazolo[4,3-a][1,4]diazepin-6-yl)-N-(2-((4-(3-(2,4-dihydroxy-5-isopropylphenyl)-5-hydroxy-4H-1,2,4-triazol-4-yl)benzyl)amino)-2-oxoethyl)acetamide], the IC50 lay within 100 to 1000 nM.

On to `CCc1cc(-c2nnc(C(=O)NCCN3CCCCC3)n2-c2ccc(CN3CCN(CC4CCN(C(=O)C[C@@H]5N=C(c6ccc(Cl)cc6)c6c(sc(C)c6C)-n6c(C)nnc65)CC4)CC3)cc2)c(O)cc1O` [Compound 117, (S)-4-(4-((4-((1-(2-(4-(4-chlorophenyl)-2,3,9-trimethyl-6H-thieno[3,2-f][1,2,4]triazolo[4,3-a][1,4]diazepin-6-yl)acetyl)piperidin-4-yl)methyl)piperazin-1-yl)methyl)phenyl)-5-(5-ethyl-2,4-dihydroxyphenyl)-N-(2-(piperidin-1-yl)ethyl)-4H-1,2,4-triazole-3-carboxamide, trifluoroacetic acid], for which the IC50 was < 100 nM.

Consider `Cc1sc2c(c1C)C(c1ccc(Cl)cc1)=N[C@@H](CCNCCOc1ccc(-n3c(O)nnc3-c3cc(C(C)C)c(O)cc3O)cc1)c1nnc(C)n1-2` [Compound 62, (S)-4-(4-(4-(2-((2-(4-(4-chlorophenyl)-2,3,9-trimethyl-6H-thieno[3,2-f][1,2,4]triazolo[4,3-a][1,4]diazepin-6-yl)ethyl)amino)ethoxy)phenyl)-5-hydroxy-4H-1,2,4-triazol-3-yl)-6-isopropylbenzene-1,3-diol, trifluoroacetic acid], for which the IC50 lay in the range of 100 to 1000 nM.

As for `Cc1sc2c(c1C)C(c1ccc(Cl)cc1)=N[C@@H](CC(=O)NCCc1ccc(CN3CCC(Cc4ccc(-n5c(C(=O)NCC(F)(F)F)nnc5-c5cc(C(C)C)c(O)cc5O)cc4)CC3)cc1)c1nnc(C)n1-2` [Compound 95, (S)-4-(4-((1-(4-(2-(2-(4-(4-chlorophenyl)-2,3,9-trimethyl-6H-thieno[3,2-f][1,2,4]triazolo[4,3-a][1,4]diazepin-6-yl)acetamido)ethyl)benzyl)piperidin-4-yl)methyl)phenyl)-5-(2,4-dihydroxy-5-isopropylphenyl)-N-(2,2,2-trifluoroethyl)-4H-1,2,4-triazole-3-carboxamide, trifluoroacetic acid], the IC50 was < 100 nM.

For the molecule `Cc1sc2c(c1C)C(c1ccc(Cl)cc1)=N[C@@H](CCN(C)CCOCCOc1ccc(-n3c(O)nnc3-c3cc(C(C)C)c(O)cc3O)cc1)c1nnc(C)n1-2` [Compound 71, (S)-4-(4-(4-(2-(2-((2-(4-(4-chlorophenyl)-2,3,9-trimethyl-6H-thieno[3,2-f][1,2,4]triazolo[4,3-a][1,4]diazepin-6-yl)ethyl)(methyl)amino)ethoxy)ethoxy)phenyl)-5-hydroxy-4H-1,2,4-triazol-3-yl)-6-isopropylbenzene-1,3-diol, trifluoroacetic acid], the IC50 is 100 to 1000 nM.
